Experimental data: US4496521A, “Insulin-potentiating peptides” (The Whittier Institute for Diabetes and Endocrinology, priority 1983, dated 1985)

Assays:
[1] = mice; Frigeri et al., Endocrine Society Abstract #88; cited from earlier work
[2] = test system: adipose tissue from hypophysectomized rats; assay: Stimulation of glucose oxidation in adipose tissue from hypophysectomized rats; assay type: cell-based; conditions: for ability to stimulate glucose oxidation in adipose tissue: native peptides at concentrations up to 50 μg per ml
Excerpt: Biochem., 11, 559-570. The detailed extraction procedure actually employed is set forth in "Human Growth Hormone Peptide 1-43: Isolation from Pituitary Glands", Singh et al., J. Protein Chem., (in press) (1983).

[3] = test system: VY-F-1 hybrid yellow mice; assay: (U-14C)-D-glucose incorporation in tissues of mice after a glucose load; assay type: in vivo
Protocol: containing an appropriate amount of (U-^14 C)-D-glucose (Amersham Radiochemicals, Arlington Heights, IN) so that about 8×10^5 dpm of radiolabeled glucose was given per mouse. Sixty minutes after administration of the mixture, the mice were sacrificed and fragments of liver, diaphragm, and adipose tissue were quickly excised and weighed in a torsion balance. The pieces were placed in vials and digested for 2 hr at 55° C. in 1 molar KOH. After cooling to room temperature, the scintillation liquid was added to the vials. Radioactivity was measured the next day, and an average efficiency of 60% was measured using the internal standard method. Samples of blood were collected at the desired time by intraorbital puncture. Glucose content in the chilled plasma was determined in triplicates by the glucose oxidase method. Blood concentration of radioactive glucose was determined using 20 μl of plasma. Glucose incorporation (GI), expressed in arbitrary units, was calculated by the following equation for the various tissues: [formula] The specific activity of plasma glucose is defined as disintegrations per minute of radioactivity×1000 per 100 μl plasma, divided by milligrams of glucose per 100 ml. of plasma. Statistical significance was determined by 1-way analysis of variance and Duncan's multiple range t-test. Yellow (A^vy /A) and agouti (A/a) virgin (BALB/c×VY)F-1 hybrid female mice were produced by mating BALB/[…] females by […] males. The mice were housed 3 per 7"×5"×11" polypropylene cage with pine shavings as bedding and fed Wayne Lab Blox (Allied Mills, Inc.) 10% fat diet and tap water ad libitum. Ambient temperature was about 22±1° C., and a 12 hr light cycle was maintained. […] Whereas the effect upon the incorporation of glucose in the diaphragm was of lesser magnitude, it is possible that the values represent the maximal rate of glucose utilization by this muscle. […] Further testing was carried out on other mice to show the effect of insulin on the utilization of glucose in similar mice. Because the animals were obese and a maximal effect was desired, a large amount of hormone (50 milliunits per mouse) were used.

[4] = Plasma glucose in mice given a glucose load (glucose oxidase method); assay type: in vivo; conditions: for Plasma Glucose 0 min: sample at 0 min; for Plasma Glucose 60 min: sample at 60 min
Protocol: Injections were made intraperitoneally 30 min before administration of a glucose load of 2 mg/g of body weight containing an appropriate amount of (U-^14 C)-D-glucose (Amersham Radiochemicals, Arlington Heights, IN) so that about 8×10^5 dpm of radiolabeled glucose was given per mouse. Sixty minutes after administration of the mixture, the mice were sacrificed and fragments of liver, diaphragm, and adipose tissue were quickly excised and weighed in a torsion balance. The pieces were placed in vials and digested for 2 hr at 55° C. in 1 molar KOH. After cooling to room temperature, the scintillation liquid was added to the vials. Radioactivity was measured the next day, and an average efficiency of 60% was measured using the internal standard method. Samples of blood were collected at the desired time by intraorbital puncture. Glucose content in the chilled plasma was determined in triplicates by the glucose oxidase method. Blood concentration of radioactive glucose was determined using 20 μl of plasma. Glucose incorporation (GI), expressed in arbitrary units, was calculated by the following equation for the various tissues: [formula]
Further testing was carried out on other mice to show the effect of insulin on the utilization of glucose in similar mice. Because the animals were obese and a maximal effect was desired, a large amount of hormone (50 milliunits per mouse) were used.

[5] = Hypoglycemic activity of insulin when the peptide is given together with insulin; assay type: in vivo
[6] = Table IA, increase versus saline, 50 μg, 30 min before glucose
[7] = Group B: insulin 50 mU per mouse 30 min before glucose
[8] = Group B: insulin 50 mU per mouse 30 min before glucose, listed as insulin
[9] = Group C: insulin 50 mU per mouse 5 min before glucose load
[10] = Group C: insulin 50 mU per mouse 5 min before glucose load, listed as insulin
[11] = Table I, increase versus saline, 50 μg, 30 min before glucose

Q: Which glucose tolerance [1] does the source give for “fragment corresponding to amino acid residues 32-46: fragment corresponding to amino acid residues 32-46 of human GH (literature) (EEAYIPKEQKYSFLQ; UniProt P01241 58-72, looked up, fragment)” here?
A: The glucose tolerance was “could improve the glucose tolerance”.

Q: For “GH: purified growth hormone, used as active comparator in the glucose oxidation assay”, which “level at which glucose oxidation stimulating activity is shown” value ([2]; purified GH) is on record?
A: The value was 0.2 ng per ml.

Q: Which results are given for “H-AHRLHQLAFDTYQEFEEAYIPKEQKYS-OH [hGH(17-43), H--Ala--His--Arg--Leu--His--Gln--Leu--Ala--Phe--Asp--Thr--Tyr--Gln--Glu--Phe--Glu--Glu--Ala--Tyr--Ile--Pro--Lys--Glu--Gln--Lys--Tyr--Ser--OH]”?
A: Glucose Incorporation Liver (%) [3, 6]: ~35%; ability to stimulate glucose oxidation in adipose tissue [2]: inactive

Q: With “Insulin: hormone which controls storage and oxidation of sugar; given at 50 mU per mouse” as the compound, how does the “Glucose Incorporation Adipose Tissue” value [3, 7] read?
A: The value was 9.1 ± 0.82 arbitrary units/g of tissue.

Q: What about the “Glucose Incorporation Diaphragm” value [3, 7] of the same compound?
A: The value was 54.4 ± 2.8 arbitrary units/g of tissue.

Q: And the “Glucose Incorporation Liver” value [3, 7]?
A: The value was 36.6 ± 2.6 arbitrary units/g of tissue.

Q: And the “Glucose Incorporation Adipose Tissue” value [3, 8]?
A: Its value is “rose”.

Q: What about the “Glucose Incorporation Diaphragm” value [3, 8] of the same compound?
A: The value was “rose”.

Q: What about the “Glucose Incorporation Liver” value [3, 8] of the same compound?
A: The value was “fell sharply below control levels”.

Q: And the “Glucose Incorporation Adipose Tissue” value [3, 9]?
A: The value was 9.0 ± 1.05 arbitrary units/g of tissue.

Q: And the “Glucose Incorporation Diaphragm” value [3, 9]?
A: The value was 52.2 ± 2.4 arbitrary units/g of tissue.

Q: And the “Glucose Incorporation Liver” value [3, 9]?
A: Its value is 64.4 ± 9.5 arbitrary units/g of tissue.

Q: And the “Glucose Incorporation Adipose Tissue” value [3, 10]?
A: Its value is “rose to values similar to those observed in the -30 minute treated group”.

Q: And the “Glucose Incorporation Diaphragm” value [3, 10]?
A: The value was “rose to values similar to those observed in the -30 minute treated group”.

Q: And the “Glucose Incorporation Liver” value [3, 10]?
A: The value was “remained unchanged”.

Q: And the “Plasma Glucose 0 min” value [4, 7]?
A: Its value is 70 ± 8.3 mg/dL.

Q: What about the “Plasma Glucose 0 min” value [4, 8] of the same compound?
A: Its value is “dropped sharply”.

Q: And the “Plasma Glucose 60 min” value [4, 7]?
A: The value was 182 ± 11.8 mg/dL.

Q: What about the “Plasma Glucose -30 min” value ([4]; Group B: insulin 50 mU per mouse 30 min before glucose, sample at -30 min) of the same compound?
A: The value was 122 ± 2.8 mg/dL.

Q: And the “Plasma Glucose 0 min” value [4, 9]?
A: Its value is 151. ± 9.5 mg/dl.

Q: And the “Plasma Glucose 60 min” value [4, 9]?
A: The value was 270 ± 31 mg/dL.

Q: What about the “Plasma Glucose -5 min” value ([4]; Group C: insulin 50 mU per mouse 5 min before glucose load, sample at -5 min) of the same compound?
A: The value was 129 ± 6.5 mg/dL.

Q: For CC[C@H](C)[C@H](NC(=O)[C@H](Cc1ccc(O)cc1)NC(=O)[C@H](C)NC(=O)[C@H](CCC(=O)O)NC(=O)[C@H](CCC(=O)O)NC(=O)[C@H](Cc1ccccc1)NC(=O)[C@H](CCC(=O)O)NC(=O)[C@H](CCC(N)=O)NC(=O)[C@H](Cc1ccc(O)cc1)NC(=O)[C@@H](NC(=O)[C@H](CC(=O)O)NC(=O)[C@H](Cc1ccccc1)NC(=O)[C@H](C)NC(=O)[C@H](CC(C)C)NC(=O)[C@H](CCC(N)=O)NC(=O)[C@H](Cc1c[nH]cn1)NC(=O)[C@H](CC(C)C)NC(=O)[C@H](CCCNC(=N)N)NC(=O)[C@H](Cc1c[nH]cn1)NC(=O)[C@H](C)NC(=O)[C@H](CCCNC(=N)N)NC(=O)[C@H](CC(C)C)NC(=O)[C@H](CCSC)NC(=O)[C@H](C)NC(=O)[C@H](CC(N)=O)NC(=O)[C@H](CC(=O)O)NC(=O)[C@H](Cc1ccccc1)NC(=O)[C@H](CC(C)C)NC(=O)[C@H](CCCNC(=N)N)NC(=O)[C@H](CO)NC(=O)[C@H](CC(C)C)NC(=O)[C@@H]1CCCN1C(=O)[C@@H](NC(=O)[C@@H](NC(=O)[C@@H]1CCCN1C(=O)[C@@H](N)Cc1ccccc1)[C@@H](C)O)[C@@H](C)CC)[C@@H](C)O)C(=O)N1CCC[C@H]1C(=O)N[C@@H](CCCCN)C(=O)N[C@@H](CCC(=O)O)C(=O)N[C@@H](CCC(N)=O)C(=O)N[C@@H](CCCCN)C(=O)N[C@@H](Cc1ccc(O)cc1)C(=O)N[C@@H](CO)C(=O)O [hGH(1-43), H--Phe--Pro--Thr--Ile--Pro--Leu--Ser--Arg--Leu--Phe--Asp--Asn--Ala--Met--Leu--Arg--Ala--His--Arg--Leu--His--Gln--Leu--Ala--Phe--Asp--Thr--Tyr--Gln--Glu--Phe--Glu--Glu--Ala--Tyr--Ile--Pro--Lys--Glu--Gln--Lys--Tyr--Ser--OH], which “Glucose Incorporation Diaphragm” value ([3]; Table I, 50 μg intraperitoneally 30 min before glucose load, Mean ± SEM) is on record?
A: Its value is 52.0 arbitrary units/g of tissue.

Q: What about the “Glucose Incorporation Liver” value ([3]; Table I, 50 μg intraperitoneally 30 min before glucose load, tissue 60 min after glucose, Mean ± SEM) of the same compound?
A: The value was 135.9 arbitrary units/g of tissue.

Q: And the “Glucose Incorporation Adipose Tissue (%)” value [3, 11]?
A: The value was 63%.

Q: And the “Glucose Incorporation Diaphragm (%)” value [3, 11]?
A: The value was 17%.

Q: What about the “Glucose Incorporation Liver” value ([3]; Table IA, 50 μg 30 min before glucose load, Mean ± SEM) of the same compound?
A: Its value is 115.2 ± 16 arbitrary units/g of tissue.

Q: And the “Glucose Incorporation Liver (%)” value [3, 6]?
A: Its value is 35%.

Q: What about the “change of plasma glucose after administration of the peptide” value ([4]; after administration of hGH(1-43)) of the same compound?
A: The value was “no significant decrease”.

Q: And the “stimulation of in vitro glucose oxidation in adipose tissue” value ([2]; in vitro)?
A: The value was “does not stimulate”.

Q: And the “ability to stimulate glucose oxidation in adipose tissue” value [2]?
A: The value was “inactive”.

Q: And the “hypoglycemic activity of insulin” value [5]?
A: Its value is “an increase of its hypoglycemic activity is observed”.
